# Measurements as given in PubChem BioAssay (NCI).
#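 Values below derive from 48-hour exposures of cells grown in 96-well plates, with endpoints linearly interpolated between the two concentrations bracketing the appropriate inhibition level. GI50 marks 50% less growth. TGI is the concentration that stops growth completely.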
# How the values were obtained:
# Experiment in all cases: growth of human tumour cells (NCI), 48 h
# SF-268 CNS = tested on: SF-268 CNS
# K-562 leukemia = tested on: K-562 leukemia
# HL-60(TB) leukemia = tested on: HL-60(TB) leukemia
# MALME-3M melanoma = tested on: MALME-3M melanoma
# MCF7 breast = tested on: MCF7 breast
# MDA-MB-231 breast = tested on: MDA-MB-231 breast
# SNB-75 CNS = tested on: SNB-75 CNS
# M14 melanoma = tested on: M14 melanoma
# OVCAR-5 ovarian = tested on: OVCAR-5 ovarian
# HCT-15 colon = tested on: HCT-15 colon
# CCRF-CEM leukemia = tested on: CCRF-CEM leukemia
# UACC-257 melanoma = tested on: UACC-257 melanoma
# HS 578T breast = tested on: HS 578T breast
# NCI-H522 lung = tested on: NCI-H522 lung
# COLO 205 colon = tested on: COLO 205 colon
# SK-MEL-5 melanoma = tested on: SK-MEL-5 melanoma
# HT29 colon = tested on: HT29 colon
# PC-3 prostate = tested on: PC-3 prostate
# SK-OV-3 ovarian = tested on: SK-OV-3 ovarian
# LOX IMVI melanoma = tested on: LOX IMVI melanoma
# BT-549 breast = tested on: BT-549 breast
# NCI-H460 lung = tested on: NCI-H460 lung
# SW-620 colon = tested on: SW-620 colon
# U251 CNS = tested on: U251 CNS
# CAKI-1 renal = tested on: CAKI-1 renal
# HCT-116 colon = tested on: HCT-116 colon
# EKVX NSCLC = tested on: EKVX NSCLC
# TK-10 renal = tested on: TK-10 renal
# T-47D breast = tested on: T-47D breast
# OVCAR-4 ovarian = tested on: OVCAR-4 ovarian
# RXF 393 renal = tested on: RXF 393 renal
# SR leukemia = tested on: SR leukemia
# SK-MEL-28 melanoma = tested on: SK-MEL-28 melanoma
# MOLT-4 leukemia = tested on: MOLT-4 leukemia
# SF-295 CNS = tested on: SF-295 CNS
# SF-539 CNS = tested on: SF-539 CNS
# SN12C renal = tested on: SN12C renal
# A549 NSCLC = tested on: A549 NSCLC
# OVCAR-3 ovarian = tested on: OVCAR-3 ovarian
# UACC-62 melanoma = tested on: UACC-62 melanoma
# HCC-2998 colon = tested on: HCC-2998 colon
# UO-31 renal = tested on: UO-31 renal
# ACHN renal = tested on: ACHN renal
# OVCAR-8 ovarian = tested on: OVCAR-8 ovarian
# KM12 colon = tested on: KM12 colon
# SNB-19 CNS = tested on: SNB-19 CNS
# MDA-MB-435 = tested on: MDA-MB-435
# 786-0 renal = tested on: 786-0 renal
# DU-145 prostate = tested on: DU-145 prostate
# SK-MEL-2 melanoma = tested on: SK-MEL-2 melanoma
# HOP-92 NSCLC = tested on: HOP-92 NSCLC
# NCI/ADR-RES ovarian = tested on: NCI/ADR-RES ovarian
# A498 renal = tested on: A498 renal
# HOP-62 NSCLC = tested on: HOP-62 NSCLC
# IGROV1 ovarian = tested on: IGROV1 ovarian
# NCI-H23 lung = tested on: NCI-H23 lung
smiles,measurement,setting,value
CC1=C[C@H]2c3c(c(O)c(O)c4oc5ccccc5c(=O)c34)[C@H](c3cc(O)c(O)c4oc5ccccc5c(=O)c34)[C@H]2C(C)(C)C1,GI50,SF-268 CNS,1140 nM
same,TGI,SF-268 CNS,16.4 µM
same,GI50,K-562 leukemia,220 nM
same,TGI,K-562 leukemia,> 100 µM
same,GI50,HL-60(TB) leukemia,3.22 µM
same,TGI,HL-60(TB) leukemia,10.8 µM
same,GI50,MALME-3M melanoma,2300 nM
same,TGI,MALME-3M melanoma,11.1 µM
same,GI50,MCF7 breast,772 nM
same,TGI,MCF7 breast,11.1 µM
same,GI50,MDA-MB-231 breast,2900 nM
same,TGI,MDA-MB-231 breast,19.1 µM
same,GI50,SNB-75 CNS,637 nM
same,TGI,SNB-75 CNS,6.59 µM
same,GI50,M14 melanoma,1360 nM
same,TGI,M14 melanoma,5.66 µM
same,GI50,OVCAR-5 ovarian,3.18 µM
same,TGI,OVCAR-5 ovarian,14.7 µM
same,GI50,HCT-15 colon,909 nM
same,TGI,HCT-15 colon,12.9 µM
same,GI50,CCRF-CEM leukemia,609 nM
same,TGI,CCRF-CEM leukemia,> 100 µM
same,GI50,UACC-257 melanoma,2650 nM
same,TGI,UACC-257 melanoma,18.1 µM
same,GI50,HS 578T breast,379 nM
same,TGI,HS 578T breast,9.89 µM
same,GI50,NCI-H522 lung,1770 nM
same,TGI,NCI-H522 lung,5.57 µM
same,GI50,COLO 205 colon,2800 nM
same,TGI,COLO 205 colon,9.73 µM
same,GI50,SK-MEL-5 melanoma,1170 nM
same,TGI,SK-MEL-5 melanoma,2510 nM
same,GI50,HT29 colon,860 nM
same,TGI,HT29 colon,13.8 µM
same,GI50,PC-3 prostate,1100 nM
same,TGI,PC-3 prostate,16.5 µM
same,GI50,SK-OV-3 ovarian,2500 nM
same,TGI,SK-OV-3 ovarian,14.2 µM
same,GI50,LOX IMVI melanoma,451 nM
same,TGI,LOX IMVI melanoma,1760 nM
same,GI50,BT-549 breast,1920 nM
same,TGI,BT-549 breast,6.69 µM
same,GI50,NCI-H460 lung,220 nM
same,TGI,NCI-H460 lung,1830 nM
same,GI50,SW-620 colon,802 nM
same,TGI,SW-620 colon,10.7 µM
same,GI50,U251 CNS,728 nM
same,TGI,U251 CNS,14 µM
same,GI50,CAKI-1 renal,675 nM
same,TGI,CAKI-1 renal,8.34 µM
same,GI50,HCT-116 colon,224 nM
same,TGI,HCT-116 colon,1750 nM
same,GI50,EKVX NSCLC,1440 nM
same,TGI,EKVX NSCLC,12.8 µM
same,GI50,TK-10 renal,2190 nM
same,TGI,TK-10 renal,15.3 µM
same,GI50,T-47D breast,764 nM
same,TGI,T-47D breast,19.3 µM
same,GI50,OVCAR-4 ovarian,786 nM
same,TGI,OVCAR-4 ovarian,20.2 µM
same,GI50,RXF 393 renal,420 nM
same,TGI,RXF 393 renal,2520 nM
same,GI50,SR leukemia,384 nM
same,TGI,SR leukemia,34.4 µM
same,GI50,SK-MEL-28 melanoma,1860 nM
same,TGI,SK-MEL-28 melanoma,13.3 µM
same,GI50,MOLT-4 leukemia,802 nM
same,TGI,MOLT-4 leukemia,24.1 µM
same,GI50,SF-295 CNS,443 nM
same,TGI,SF-295 CNS,2280 nM
same,GI50,SF-539 CNS,1100 nM
same,TGI,SF-539 CNS,4.89 µM
same,GI50,SN12C renal,1360 nM
same,TGI,SN12C renal,6.71 µM
same,GI50,A549 NSCLC,276 nM
same,TGI,A549 NSCLC,4.91 µM
same,GI50,OVCAR-3 ovarian,426 nM
same,TGI,OVCAR-3 ovarian,10.5 µM
same,GI50,UACC-62 melanoma,707 nM
same,TGI,UACC-62 melanoma,2330 nM
same,GI50,HCC-2998 colon,1870 nM
same,TGI,HCC-2998 colon,6.03 µM
same,GI50,UO-31 renal,730 nM
same,TGI,UO-31 renal,2180 nM
same,GI50,ACHN renal,863 nM
same,TGI,ACHN renal,9.22 µM
same,GI50,OVCAR-8 ovarian,930 nM
same,TGI,OVCAR-8 ovarian,46.9 µM
same,GI50,KM12 colon,1070 nM
same,TGI,KM12 colon,9.53 µM
same,GI50,SNB-19 CNS,1170 nM
same,TGI,SNB-19 CNS,14.1 µM
same,GI50,MDA-MB-435,839 nM
same,TGI,MDA-MB-435,4.42 µM
same,GI50,786-0 renal,1990 nM
same,TGI,786-0 renal,6.24 µM
same,GI50,DU-145 prostate,1010 nM
same,TGI,DU-145 prostate,14.4 µM
same,GI50,SK-MEL-2 melanoma,2240 nM
same,TGI,SK-MEL-2 melanoma,6.72 µM
same,GI50,HOP-92 NSCLC,1390 nM
same,TGI,HOP-92 NSCLC,5.43 µM
same,GI50,NCI/ADR-RES ovarian,3.07 µM
same,TGI,NCI/ADR-RES ovarian,16.3 µM
same,GI50,A498 renal,519 nM
same,TGI,A498 renal,3.38 µM
same,GI50,HOP-62 NSCLC,978 nM
same,TGI,HOP-62 NSCLC,8.35 µM
same,GI50,IGROV1 ovarian,1050 nM
same,TGI,IGROV1 ovarian,8.09 µM
same,GI50,NCI-H23 lung,518 nM
same,TGI,NCI-H23 lung,3.22 µM
